One data set relates to Nsp15. To be noted: cited from earlier work.
In data set [1] the target is T1, wildtype SARS-CoV-2 Nsp15 (Severe acute respiratory syndrome coronavirus 2, UniProt P0DTD1). Put plainly: biochemical. To be noted: for IC50: 150 nM enzyme, 1.2 μM substrate, 30 min, 25 °C, mean (SD), duplicates; for change of inhibitory effect relative to parent analog: comparison of IC50 values; for IC50 versus time: IC50 calculated every 5 min for 30 min; for inhibition model: extra sum-of-squares F test; for Vmax: fit parameter of mixed inhibition model for the named inhibitor.

Data set [2] has as its target T1, wildtype SARS-CoV-2 Nsp15. Put plainly: Nsp15 inhibition in HEPES buffer assay conditions. The class given is biochemical. The conditions noted are these: 10 nM Nsp15, 500 nM substrate, 100 μM compound.
For a further data set, the system named is SARS-CoV-2. Put plainly: SARS-CoV-2 plaque assay in VeroE6/TMPRSS2 cells. It is filed as cell-based. To be noted: for IC50: 24 h infection, MOI = 0.1, read-out: IC50 (viral inhibition, plaque assay).
Another data set can be described thus: in vitro. It is filed as cell-based. The conditions noted are these: African green monkey, uninfected cells, intracellular ATP. As to the method: (§1) Initially, we grew VeroE6/TMPRSS2 cells overnight in 96-well plates at 10,000 cells per well. The next day, we added increasing concentrations of the tested compound (500, 200, 100, 50, 20, 10, 5, 2, and 1 μM) and DMSO as a control. We let the cells incubate with inhibitors for 24 h. After 24 h, we measured the viability of these cells using the CellTiter-Glo Luminescent Cell Viability Assay (Promega), according to the manufacturer’s instructions. We incubated cells in 100 μl of media with 100 μl of CellTiter-Glo reagent, which contains Ultra-Glo luciferase and the substrate luciferin. The luciferase converts luciferin to luminescent oxyluciferin in the presence of ATP. Viable cells produce more ATP and generate a stronger luminescent signal. We mixed samples by shaking for 10 min and measured luminescence by a VICTOR Nivo Plate Reader (Avantor Science Central).

The subject of the next data set is SARS-CoV-2 RNA. It is filed as cell-based. To be noted: 24 h infection, MOI = 0.1.
A further data set addresses SARS-CoV-2 Nsp15 (Severe acute respiratory syndrome coronavirus 2, UniProt P0DTD1). Put plainly: Reversibility by the dilution method. To be noted: preincubated 60 min, diluted 1:100. It is filed as biochemical.
Another data set concerns VeroE6/TMPRSS2 cells. Put plainly: in vitro. The class given is cell-based. To be noted: uninfected cells, 24 h, intracellular ATP. As to the method: as §1
Setting [3] is: noncompetitive inhibition model, IC50-to-Ki converter, read-out: Predicted Ki.
The mark [4] stands for this setting: mixed inhibition model fit, mean ± SD.
[5] abbreviates: mixed inhibition model fit, mean ± SD, read-out: Ki.
The mark [6] stands for this setting: Severe acute respiratory syndrome coronavirus 2, VeroE6/TMPRSS2, 24 h.

Where “and” joins values, the source holds several entries; their conditions need not be identical. Equal entries are not always repeated. Entries after “also recorded” stand apart in the source; their conditions may differ. Where two headings read alike, the source gives them in different places.

As a reminder, the IC50 is the concentration that inhibits the measured activity by half. Consider `Oc1ccc2ccccc2c1SSc1c(O)ccc2ccccc12` [IPA-3], for which, in the data set on Nsp15, the IC50 was 7 µM and the “inhibition mechanism” value is given as “irreversibly inhibited Nsp15”.
For orientation: inhibition means the percentage by which the read-out fell short of the control. The low end stands for little suppression, the high end for strong suppression. Broadly, the Ki is the dissociation constant of the complex between target and ligand, obtained from inhibition or displacement. Take `O=C1NC(=O)C(=CC=Cc2c3ccccc3cc3ccccc23)S1` [KCO035, 5-(3-anthracen-9-yl-allylidene)-thiazolidine-2,4-dione]: in data set [1], the “inhibitory effect on Nsp15 activity” value is reported as “mild inhibitory effect” and half-maximal inhibition (IC50) was put at 7.21 µM. Moreover, the inhibition at 100 µM in data set [1] (100 μM compound) was around 80%. The Ki in data set [1] (setting [3]) was 7.14 µM.
Consider `O=C1NC(=O)C(=CC=Cc2ccccc2)S1` [KCO036, 5-(3-Phenyl-allylidene)-thiazolidine-2,4-dione], for which, in data set [1], the “inhibitory effect on Nsp15 activity” value is on record as “weak inhibitor”, the concentration for half-maximal inhibition (IC50) is 9.4 µM and the “change of inhibitory effect relative to parent analog” value was “reduced inhibitory effect”. The Ki in data set [1] (setting [3]) is 9.33 µM.
As to `O=C1NC(=O)C(=CC=Cc2ccnc3ccccc23)S1` [KCO048], in data set [1], the “inhibitory effect on Nsp15 activity” value is “low micromolar concentrations”, half-maximal inhibition (IC50) was put at 1.35 µM and the “change of inhibitory effect relative to parent analog” value is “threefold greater inhibitory effect than KCO231”. In data set [1] (setting [3]), the Ki is 1.27 µM.
In the case of `O=C1NC(=S)SC1=CC=Cc1c2ccccc2cc2ccccc12` [KCO230, 5-(3-anthracen-9-yl-allylidene)-2-thioxo-thiazolidin-4-one], in data set [1], inhibition was half-maximal at 4.58 µM (IC50) and the “change of inhibitory effect relative to parent analog” value is recorded as “nearly doubled”. The Ki in data set [1] (setting [3]) is 4.5 µM.
Turning to `O=C1NC(=O)C(=CC=Cc2cccc3ccccc23)S1` [KCO231, 5-(3-naphthalen-1-yl-allylidene)-thiazolidine-2,4-dione], in data set [1], it took 4.41 µM to reach half-maximal inhibition (IC50) and the “change of inhibitory effect relative to parent analog” value is “doubled the inhibitory effect”. Moreover, in data set [1] (setting [3]), the Ki is 4.34 µM.
In the case of `O=C1NC(=O)C(=CC=Cc2cncc3ccccc23)S1` [KCO234, 5-(3-isoquinolin-4-yl-allylidene)-thiazolidine-2,4-dione], in data set [1], 7.38 µM corresponded to half-maximal inhibition (IC50) and the “change of inhibitory effect relative to parent analog” value is on record as “did not enhance inhibitory activity”. Also, the inhibitory constant (Ki) in data set [1] (setting [3]) was 7.3 µM.
Regarding `O=C1NC(=O)C(=CC=Cc2cccc3ccncc23)S1` [KCO235, 5-(3-isoquinolin-8-yl-allylidene)-thiazolidine-2,4-dione], in data set [1], the IC50 came out at 4.17 µM and the “change of inhibitory effect relative to parent analog” value is listed as “moderate increase in inhibitory effect”. Also, the Ki in data set [1] (setting [3]) is 4.1 µM.
`O=C1NC(=O)C(=CC=Cc2ccc3cnccc3c2)S1` [KCO236, 5-(3-isoquinolin-6-yl-allylidene)-thiazolidine-2,4-dione]: in data set [1], the “inhibitory effect on Nsp15 activity” value is reported as “submicromolar levels”, 0.932 µM corresponded to half-maximal inhibition (IC50) and the “change of inhibitory effect relative to parent analog” value is listed as “moderate increase in inhibitory effect”. Also, in data set [1] (setting [3]), the Ki is 0.857 µM.
The Vmax is the rate approached at saturating substrate. Broadly, the CC50 is the concentration that lowers cell viability or growth by half. As to `O=C1NC(=S)SC1=CC=Cc1ccnc2ccccc12` [KCO237, 5-(3-quinolin-4-yl-allylidene)-2-thioxo-thiazolidine-4-one], in data set [1], the “inhibitory effect on Nsp15 activity” value was “submicromolar levels”, the IC50 is 0.304 µM, the “IC50 versus time” value is on record as “consistent through the period of the assay; also recorded: remained constant over the time of the assay” and the “change of inhibitory effect relative to parent analog” value was “fivefold increase in potency compared with KCO048”. Further, in data set [1], the “inhibition model” value is “reversible mixed inhibition model” and the Vmax is 1.57 ± 0.0568 µM/min. The Ki in data set [1] (Cheng–Prusoff equation, noncompetitive inhibition assumed, read-out: predicted Ki) is 0.23 µM. This compound came in with a α in data set [1] (setting [4]) of 0.343 ± 0.188. Also, the Ki in data set [1] (setting [5]) came out at 0.318 ± 0.134 µM. In addition, the inhibition constant (Ki) in data set [1] (setting [3]) is 0.229 µM. The “inhibition under HEPES assay conditions” value in data set [2] was “inhibited Nsp15 more potently than tipiracil under these conditions”. In addition, in the data set with SARS-CoV-2, the concentration for half-maximal inhibition (IC50) amounted to 13.9 ± 1.95 µM. Also, the IC50 in the data set on SARS-CoV-2 (setting [6]) amounted to 14 µM. In addition, in the data set “in vitro”, the CC50 at 24 h is above 500 µM. In addition, the “intracellular SARS-CoV-2 RNA” value with SARS-CoV-2 RNA is “significantly reduced viral RNA in a dose-dependent manner”. At SARS-CoV-2 Nsp15, the “Nsp15 activity after inhibitor dilution” value is reported as “recovered its activity”.
With `CN1C(=O)SC(=CC=Cc2c3ccccc3cc3ccccc23)C1=O` [KCO238, 3-methyl-5-(3-anthracen-9-yl-allylidene)-thiazolidine-2,4-dione], in data set [1], the “inhibitory effect on Nsp15 activity” value was “did not inhibit Nsp15 activity; also recorded: lose their inhibitory effect” and 106 µM corresponded to half-maximal inhibition (IC50).
Consider `O=C1NC(=S)SC1=CC=Cc1cccc2ccccc12` [KCO249, 5-(3-naphthalen-1-yl-allylidene)-2-thioxo-thiazolidin-4-one], for which, in data set [1], the “inhibitory effect on Nsp15 activity” value is given as “low micromolar concentrations” and the “change of inhibitory effect relative to parent analog” value is listed as “enhanced its inhibitory effect by sixfold”. For the same compound, the Ki in data set [1] (setting [3]) is 1.28 µM.
Turning to `CN1C(=O)SC(=CC=Cc2cccc3ccccc23)C1=O` [KCO250, 3-methyl-5-(3-naphthalen-1-yl-allylidene)-thiazolidine-2,4-dione], in data set [1], the “inhibitory effect on Nsp15 activity” value was “did not inhibit Nsp15 activity; also recorded: lose their inhibitory effect” and the IC50 is above 1000 µM.
Regarding `O=C1NC(=S)SC1=CC=Cc1cncc2ccccc12` [KCO251, 5-(3-isoquinolin-4-yl-allylidene)-2-thioxo-thiazolidin-4-one], in data set [1], the “inhibitory effect on Nsp15 activity” value was “submicromolar levels”, the IC50 was 0.931 µM, the “IC50 versus time” value is “consistent through the period of the assay; also recorded: remained constant over the time of the assay” and the “change of inhibitory effect relative to parent analog” value is reported as “eightfold increase in inhibition potency”. In data set [1], the “inhibition model” value is “reversible mixed inhibition model” and the maximal velocity (Vmax) was found to be 3.38 ± 0.170 µM/min. The compound further yielded a α in data set [1] (setting [4]) of 0.293 ± 0.280. In addition, the Ki in data set [1] (setting [5]) amounted to 0.471 ± 0.33 µM. The Ki in data set [1] (setting [3]) is 0.856 µM. The “inhibition under HEPES assay conditions” value in data set [2] is reported as “inhibited Nsp15 more potently than tipiracil under these conditions”. For the same compound, in the data set with SARS-CoV-2 (CC50 over IC50), the “selectivity index (SI)” value was ~13 and > 10. For the same compound, in the data set on SARS-CoV-2 (setting [6]), the IC50 stood at 24 µM. The CC50 at 24 h in the data set “in vitro” is above 300 µM. The compound further gave a CC50 with VeroE6/TMPRSS2 cells of 311 ± 120 µM. In the data set with SARS-CoV-2 RNA, the “intracellular SARS-CoV-2 RNA” value is on record as “significantly reduced viral RNA in a dose-dependent manner”. At SARS-CoV-2 Nsp15, the “Nsp15 activity after inhibitor dilution” value is given as “recovered its activity”.
Take `O=C1C(SCCO)=C(SCCO)C(=O)c2ccccc21` [NSC95397]: the concentration for half-maximal inhibition (IC50) with Nsp15 was 43 µM.
For `N=C1CCCN1Cc1nc(O)nc(O)c1Cl` [Tipiracil, tipiracil, reference compound], in data set [1], the “inhibitory effect on Nsp15 activity” value is “did not inhibit Nsp15 activity” and the IC50 is above 1000 µM. Besides, in data set [2], the “inhibition under HEPES assay conditions” value was “did inhibit Nsp15 under these conditions but to a lesser extent than KCO237 and KCO251”. Moreover, in the data set with Nsp15, the IC50 was 7.5 µM.
`Oc1c(Cl)cc(Cl)c(Cl)c1Cc1c(O)c(Cl)cc(Cl)c1Cl` [hexachlorophene]: the IC50 in the data set on Nsp15 is 1 µM.

The values above are taken from paper PMC12303054, “First-in-class inhibitors of Nsp15 endoribonuclease of SARS-CoV-2: Modeling, synthesis, and enzymatic assay of thiazolidinedione and rhodanine analogs” (The Journal of Biological Chemistry, 2025).
